Source: paper PMC12027946, “Ionic and Non-Ionic Counterparts Based on Bis(Uracilyl)Alkane Moiety with Highest Selectivity Towards Acetylcholinesterase for Protection Against Organophosphate Poisoning and Treating Alzheimer’s Disease” (International Journal of Molecular Sciences, 2025)
Where “and” joins values, the source holds several entries; their conditions need not be identical. Equal values may be shown once. Read-outs that look alike come from different tables or passages of the source.

How the values were obtained:
[1] = test system: mice poisoned with 2×LD50 of POX; assay: Protection against POX toxicity (pre-treatment); assay type: in vivo; details: for n/N (mice surviving 5 days after POX poisoning / total): atropine 15 mg/kg i.p. 1 min after POX
Experimental: The concept of using reversible AChE inhibition as a preventive strategy to enhance the efficacy of traditional antidotes in OP poisoning is a well-established principle. This study explores the potential of bisuracil 2b as a preventive agent to protect AChE from irreversible inhibition caused by paraoxon (POX), a model OP. […] Following POX administration, the standard antidote atropine was given at a dose of 15 mg/kg within one minute. […] Increasing the dose of bisuracil 2b reduced the protective effect in POX poisoned animals (Table 3).
We also estimated the relative risk of death (RRD) as a function of precocity (from min to hours) over a period of 10 h by Cox survival analysis. Statistical differences in the number of surviving animals between experimental groups were tested using the Cox–Mantel multisample logarithmic rank criterion. It was shown that, in mice exposed to 0.42 mg/kg of POX, RRD = 1 (Figure 5). However, in animals that received atropine within 1 min after poisoning, POX-induced mortality was lower (RRD = 0.5; Figure 5).
The tested compound was administered via i.p. before POX injection.

mice [2] = assay: Open-field test; assay type: in vivo; details: 2b 0.01 mg/kg, 3c 5 mg/kg, i.p.
Experimental: (§1) The ability of effective doses of bisuracil 2b (0.01 mg/kg) and bisuracil 3c (5 mg/kg) to induce incapacitation was evaluated. Locomotor activity, measured as the total distance travelled, and exploratory behaviour, assessed by the number of rearings (head inclinations) and head dips, were evaluated using the open-field test. Additionally, motor coordination was analysed using the rotarod test, where the ability of mice to stay on the rotating rod was recorded. The compounds were administered i.p. 30 min before testing, while the control group received an equivalent volume of the vehicle.
(§2) To analyse motor function, rotarod and open-field tests were carried out. Mice were randomly divided into 3 groups (n = 12): a control group of mice and groups of mice treated with tested compounds. Tests were conducted 1 h after compound exposure. To assess motor function, mice were first placed on a rotarod treadmill (Ugo Basile, Italy). Rotation speed was fixed at 15 rpm, and the time that each mouse remained on the rod was recorded as the score, with a maximum duration of 300 s per trial. Each mouse underwent 3 trials. After recording the length of time that mice managed to remain on the rotarod (latency to fall), the average of three trials was used for further analysis. Following the rotarod test, motor function was studied in an open field apparatus (Open Science, Krasnogorsk, Russia), as described in [39]. The numbers of rearing and head dips were estimated as indexes of exploratory activity. To assess motor function, the distance travelled in centimetres in the arena was measured, using VideoMot2 software (Version 8.02 (131) 03-07-17 (TSE Systems, Bad Homburg, Germany).

BChE from human plasma = biological target: T1, BChE from human plasma (Homo sapiens, UniProt P06276); assay: In vitro cholinesterase inhibition (Ellman), BuChE; assay type: biochemical
T1 construct: butyrylcholiesterase from human plasma; purchased Sigma-Aldrich; host or cells: human plasma
T1 sequence (P06276 29-602): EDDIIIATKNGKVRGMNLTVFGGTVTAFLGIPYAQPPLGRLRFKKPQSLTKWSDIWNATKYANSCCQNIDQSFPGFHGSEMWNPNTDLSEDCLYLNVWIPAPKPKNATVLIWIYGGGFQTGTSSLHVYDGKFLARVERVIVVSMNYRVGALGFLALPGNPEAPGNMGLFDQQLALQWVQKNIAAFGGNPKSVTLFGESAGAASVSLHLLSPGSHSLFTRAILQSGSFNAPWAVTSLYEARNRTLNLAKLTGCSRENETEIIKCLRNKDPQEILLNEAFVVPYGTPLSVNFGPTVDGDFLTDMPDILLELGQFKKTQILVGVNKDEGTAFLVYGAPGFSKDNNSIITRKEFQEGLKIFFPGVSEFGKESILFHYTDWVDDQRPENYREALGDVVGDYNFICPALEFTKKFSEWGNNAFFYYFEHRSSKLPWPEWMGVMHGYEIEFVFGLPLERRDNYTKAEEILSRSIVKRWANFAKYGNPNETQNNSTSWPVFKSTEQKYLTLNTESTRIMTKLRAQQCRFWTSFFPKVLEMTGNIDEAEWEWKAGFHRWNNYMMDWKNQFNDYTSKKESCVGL
Experimental: (§3) Inhibitory activities of the tested compounds against AChE and BChE were measured according to Ellman et al.. Enzyme-catalysed hydrolysis of ATCHh was carried out at 25 °C in 0.1 M phosphate buffer (pH 8.0) containing 0.25 U AChE, 1 mM ATCHh as substrates, and 0.1 mM of DTNB. In experiments with BuChE, 0.1 M phosphate buffer (pH 7.0) and BuTChh as a substrate were used. The tested compounds were pre-incubated with the enzyme for two minutes prior to the addition of the substrate and the subsequent recording of hydrolysis kinetics. […] A sample without an inhibitor was used as a control (100% cholinesterase activity). A sample without a substrate was used as a blank. Experiments were performed in triplicate.

human BuChE = biological target: T2, human BuChE (Homo sapiens, UniProt P06276); assay: Inhibition constants (Dixon and Cornish–Bowden plots), BuChE; assay type: biochemical
T2 construct: butyrylcholiesterase from human plasma; purchased Sigma-Aldrich; host or cells: human plasma
T2 sequence (P06276 29-602): as above
Experimental: (§4) Experiments were performed using four different concentrations of ATCh as a substrate for AChE, and with BuTCh as a substrate for BuChE. According to the analysis of Dixon and Cornish–Bowden plots for bisuracil 2b, AChE and BuChE inhibition is of a mixed type characterised both by competitive inhibition (Kci) and uncompetitive inhibition (Kui) components. For AChE, Kci was determined to be 55.7 ± 8.1 pM while Kui = 156 ± 18 pM (Figure 3A,B), and Kci = 0.13 ± 0.02 mM while Kui = 0.7 ± 0.06 mM for BuChE (Figure 3C,D). Inhibition of AChE and BuChE by bisuracil 3c was of a mixed type. For the AChE constant, Kci was 0.7 ± 0.04 nM while Kui 4.45 ± 1.76 nM (Figure 4A,B); for the BuChE constant, Kci = 0.04 ± 0.007 мM while Kui = 0.68 ± 0.08 мM (Figure 4C,D).
(§5) A UV-1800 Shimadzu (Shimadzu Co., Kyoto, Japan) spectrophotometer was utilised to conduct the measurements. The final enzyme concentration in the assays was in the picomolar range. In order to ascertain the levels of spontaneous hydrolysis of the enzyme and substrate in the absence of an inhibitor, controls were performed for each substrate concentration. The change in absorption was then recorded over a period of three minutes. The inhibition constants were determined from a Dixon plot and Cornish–Bowden transformation.

mice [3] = assay: Rotarod test; assay type: in vivo; details: 2b 0.01 mg/kg i.p.; control 173 ± 21 s, p = 0.125
Experimental: as §1
as §2, with “After recording the length of time that mice managed to remain on the rotarod (latency to fall), the average of three trials was used for further analysis. Following the rotarod test, motor function was studied in an open field apparatus (Open Science, Krasnogorsk, Russia), as described in [39]. The numbers of rearing and head dips were estimated as indexes of exploratory activity.” left out

[4] = Acute toxicity, single i.p. injection; details: CD-1, mouse, in vivo, ip, mice
Experimental: Toxicological experiments were performed using a single i.p. injection of the tested compounds in CD-1 mice weighing 20–25 g. Stock solutions of the tested compounds were diluted in ethanol or water. The final ethanol dose was 100 mg/kg. Nine different doses of the tested compounds were used with 12 mice per dose. Animals were observed 7 days after injection, and symptoms of toxicity were recorded.

human AChE [5] = biological target: T3, human AChE (Homo sapiens, UniProt P22303); assay: In vitro cholinesterase inhibition (Ellman), AChE; assay type: biochemical
T3 construct: purchased Sigma-Aldrich
T3 sequence (P22303 32-614): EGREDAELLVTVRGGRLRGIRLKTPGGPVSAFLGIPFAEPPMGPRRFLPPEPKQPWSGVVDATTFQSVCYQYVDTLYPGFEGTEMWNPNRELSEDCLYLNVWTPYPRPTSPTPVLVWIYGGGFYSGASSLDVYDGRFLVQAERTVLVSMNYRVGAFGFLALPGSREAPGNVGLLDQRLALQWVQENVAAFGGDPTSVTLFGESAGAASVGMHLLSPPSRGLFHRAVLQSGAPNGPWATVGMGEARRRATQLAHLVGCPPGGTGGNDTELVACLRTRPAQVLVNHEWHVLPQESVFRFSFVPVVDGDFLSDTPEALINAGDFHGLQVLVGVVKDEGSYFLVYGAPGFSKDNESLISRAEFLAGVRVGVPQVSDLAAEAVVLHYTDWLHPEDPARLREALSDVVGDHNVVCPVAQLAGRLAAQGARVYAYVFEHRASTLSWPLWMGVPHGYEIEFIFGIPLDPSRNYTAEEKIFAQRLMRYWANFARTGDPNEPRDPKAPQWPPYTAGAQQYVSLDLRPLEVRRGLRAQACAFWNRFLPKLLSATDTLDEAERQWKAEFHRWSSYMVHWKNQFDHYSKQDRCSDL
Experimental: as §3

human AChE [6] = biological target: T3, human AChE; assay: Inhibition constants (Dixon and Cornish–Bowden plots), AChE; assay type: biochemical
Experimental: as §4, §5

SMILES: CC[N+](CC)(CCCCCn1c(=O)ccn(CCCCn2c(C)cc(=O)n(C)c2=O)c1=O)Cc1ccccc1C#N [2b, 1,4-{(3,6-Dimethyluracil-1-yl)-[3-(5-o-nitrilebenzyl(diethyl)ammonio)pentyl)-uracil-1-yl]}butane bromide]
- n/N (mice surviving 5 days after POX poisoning / total) ([1]; 2b 0.005 mg/kg i.p. 30 min before POX 0.42 mg/kg i.p.): 8/12
- n/N (mice surviving 5 days after POX poisoning / total) ([1]; 2b 0.01 mg/kg i.p. 30 min before POX 0.42 mg/kg i.p.): 10 out of 12 and 10/12
- relative risk of death (RRD) vs poisoned group treated only with atropine ([1]; 2b 0.01 mg/kg pre-treatment, p = 0.02): significantly decreased
- n/N (mice surviving 5 days after POX poisoning / total) ([1]; 2b 0.05 mg/kg i.p. 30 min before POX 0.42 mg/kg i.p.): 7/12
- n/N (mice surviving 5 days after POX poisoning / total) ([1]; 2b 0.1 mg/kg i.p. 30 min before POX 0.42 mg/kg i.p.): 5/12
- n/N (mice surviving 5 days after POX poisoning / total) ([1]; 2b 0.5 mg/kg i.p. 30 min before POX 0.42 mg/kg i.p.): 4/12
- n/N (mice surviving 5 days after POX poisoning / total) ([1]; 2b 1 mg/kg i.p. 30 min before POX 0.42 mg/kg i.p.): 4/12
- relative risk of death (RRD) ([1]; 2b doses above 0.01 mg/kg): did not result in a reduction
- distance travelled (open field) vs control group (mice [2]): no significant differences
- number of rearings or head dips (open field) (mice [2]): neither of the tested compounds significantly influenced
- IC50 (BChE from human plasma): 219000 ± 50000 nM
- Ki (human BuChE): 130000 ± 20000 nM
- Kui (uncompetitive inhibition constant), BuChE (human BuChE; BuTCh as substrate): 0.7 ± 0.06 mM
- type of BuChE inhibition (human BuChE; Dixon and Cornish–Bowden plots): mixed type
- mean fall time (rotarod) (mice [3]): 124 ± 20 s
- LD50 at 7 days ([4]; observed 7 days, read-out: LD50 (median lethal dose)): 5.16 mg/kg
- LD50 at 7 days ([4]; read-out: LD50 95% confidence limits): 3.68 to 6.94 mg/kg
- IC50 (human AChE [5]; AChE IC50, as printed in text and Figure 9): 0.0649 nM
- IC50 (human AChE [5]; IC50 AChE, Table 1, recombinant human AChE, 25 °C, pH 8.0): 0.06 ± 0.003 nM
- Ki (human AChE [6]): 0.0557 ± 0.0081 nM
- Kui (uncompetitive inhibition constant), AChE (human AChE [6]; ATCh as substrate): 156 ± 18 pM
- type of AChE inhibition (human AChE [6]; Dixon and Cornish–Bowden plots): mixed type
